ChEMBL document CHEMBL5233265, “Recent advances in the design and development of formyl peptide receptor 2 (FPR2/ALX) agonists as pro-resolving agents with diverse therapeutic potential” (Eur J Med Chem, 2021)

Experiments:
fMet-Leu-Phe receptor [1] = molecular target: T1, fMet-Leu-Phe receptor (Homo sapiens, UniProt P21462); experiment: Agonist activity at human FPR1 expressed in CHO-A12 cells assessed as cAMP level incubated for 1.5 hr by HTRF assay; type: cell-based
T1 sequence (P21462 whole entry): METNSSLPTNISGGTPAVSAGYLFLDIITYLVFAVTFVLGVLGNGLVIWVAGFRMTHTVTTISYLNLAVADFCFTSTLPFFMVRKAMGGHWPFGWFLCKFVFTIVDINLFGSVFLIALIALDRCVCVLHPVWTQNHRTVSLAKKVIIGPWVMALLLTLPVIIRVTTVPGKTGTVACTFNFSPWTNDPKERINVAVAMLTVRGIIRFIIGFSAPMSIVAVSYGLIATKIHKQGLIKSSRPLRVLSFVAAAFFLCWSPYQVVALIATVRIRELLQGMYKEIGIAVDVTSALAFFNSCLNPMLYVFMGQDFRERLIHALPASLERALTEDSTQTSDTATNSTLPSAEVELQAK

[2] = molecular target: T2, N-formyl peptide receptor 2 (Homo sapiens, UniProt P25090); experiment: Agonist activity at human FPR2 expressed in CHO-A12 cells assessed as cAMP level incubated for 1.5 hr by HTRF assay; type: cell-based
T2 sequence (P25090 whole entry): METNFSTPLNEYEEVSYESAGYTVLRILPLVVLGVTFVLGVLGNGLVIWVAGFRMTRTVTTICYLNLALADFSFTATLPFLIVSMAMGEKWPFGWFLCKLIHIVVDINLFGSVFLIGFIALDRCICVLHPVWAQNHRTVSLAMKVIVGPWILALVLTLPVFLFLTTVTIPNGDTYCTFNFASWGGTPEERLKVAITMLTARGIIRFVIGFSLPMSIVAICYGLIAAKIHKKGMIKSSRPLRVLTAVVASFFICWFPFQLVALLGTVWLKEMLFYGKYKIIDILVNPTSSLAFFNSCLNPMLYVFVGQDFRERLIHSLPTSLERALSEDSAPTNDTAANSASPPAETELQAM

fMet-Leu-Phe receptor [3] = molecular target: T3, fMet-Leu-Phe receptor (Mus musculus, UniProt P33766); experiment: Agonist activity at mouse FPR1 expressed in CHO-A12 cells assessed as cAMP level incubated for 1.5 hr by HTRF assay; type: cell-based
T3 sequence (P33766 whole entry): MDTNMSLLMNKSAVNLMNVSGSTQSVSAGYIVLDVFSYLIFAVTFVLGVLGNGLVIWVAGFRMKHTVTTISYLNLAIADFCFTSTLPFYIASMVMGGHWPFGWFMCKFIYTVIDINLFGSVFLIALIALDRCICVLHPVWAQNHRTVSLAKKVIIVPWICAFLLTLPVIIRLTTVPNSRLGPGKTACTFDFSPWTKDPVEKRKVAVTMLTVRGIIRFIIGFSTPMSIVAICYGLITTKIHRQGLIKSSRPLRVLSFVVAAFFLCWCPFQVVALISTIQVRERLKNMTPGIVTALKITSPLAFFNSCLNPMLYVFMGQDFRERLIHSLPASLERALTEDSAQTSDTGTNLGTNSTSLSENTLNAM

[4] = molecular target: T4, Formyl peptide receptor 2 (Mus musculus, UniProt O88536); experiment: Agonist activity at mouse FPR2 expressed in CHO-A12 cells assessed as cAMP level incubated for 1.5 hr by HTRF assay; type: cell-based
T4 sequence (O88536 whole entry): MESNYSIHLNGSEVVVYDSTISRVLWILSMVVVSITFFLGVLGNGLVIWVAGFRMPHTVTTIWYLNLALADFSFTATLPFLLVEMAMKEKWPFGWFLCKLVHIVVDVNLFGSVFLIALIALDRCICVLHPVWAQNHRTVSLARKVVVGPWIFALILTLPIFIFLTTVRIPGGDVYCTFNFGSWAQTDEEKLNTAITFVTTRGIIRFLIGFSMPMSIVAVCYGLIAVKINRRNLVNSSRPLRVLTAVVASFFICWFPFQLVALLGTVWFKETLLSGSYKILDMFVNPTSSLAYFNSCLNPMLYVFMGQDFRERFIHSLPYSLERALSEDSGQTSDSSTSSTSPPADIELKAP

[5] = molecular target: T5, Formyl peptide receptor-related sequence 1 (Mus musculus, UniProt O08790); experiment: Agonist activity at mouse FPR3 expressed in CHO-A12 cells assessed as cAMP level incubated for 1.5 hr by HTRF assay; type: cell-based
T5 sequence (O08790 whole entry): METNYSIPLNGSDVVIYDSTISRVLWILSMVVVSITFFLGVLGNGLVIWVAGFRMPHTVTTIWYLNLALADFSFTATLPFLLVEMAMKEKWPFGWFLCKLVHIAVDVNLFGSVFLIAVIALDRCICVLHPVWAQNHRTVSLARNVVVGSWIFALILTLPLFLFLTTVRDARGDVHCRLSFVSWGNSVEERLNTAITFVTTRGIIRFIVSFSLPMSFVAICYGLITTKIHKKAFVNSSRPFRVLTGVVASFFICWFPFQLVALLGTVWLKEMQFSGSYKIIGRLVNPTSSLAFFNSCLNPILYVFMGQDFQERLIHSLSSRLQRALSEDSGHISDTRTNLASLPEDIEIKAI

[6] = molecular target: T2, N-formyl peptide receptor 2; experiment: Agonist activity at human FPR2 expressed in CHO-K1 cells by beta-arrestin recruitment assay; type: cell-based
HL-60 [7] = experiment: Induction of cell migration in human HL-60 cells incubated for 120 mins by transwell assay; type: functional, cell-based; conditions: HL-60, 2 h
HL-60 [8] = experiment: Inhibition of cell migration in human HL-60 cells incubated for 120 mins in presence of serum amyloid A by transwell assay; type: functional, cell-based; conditions: HL-60, 2 h
Mus musculus [9] = experiment: Neuroprotective activity against Myocardial infarction C57BL/6 mouse model assessed as reduction in infarct area at 1 mg/kg,po qd measured after 4 weeks; type: functional; set-up: scale not given: the % may be the effect or the level left
Mus musculus [10] = experiment: Neuroprotective activity against Myocardial infarction C57BL/6 mouse model assessed as reduction in infarct area at 10 mg/kg,po qd measured after 4 weeks; type: functional; set-up: scale not given: the % may be the effect or the level left
Rattus norvegicus [11] = experiment: Neuroprotective activity against ischemia-reperfusion injury Sprague-Dawley rat model assessed as increase in ejection fraction at 10 mg/kg,po qd measured after 6 weeks; type: functional
Rattus norvegicus [12] = experiment: Neuroprotective activity against ischemia-reperfusion injury Sprague-Dawley rat model assessed as increase in proximal viable myocardium at 10 mg/kg,po qd measured after 6 weeks; type: functional
Rattus norvegicus [13] = experiment: Neuroprotective activity against ischemia-reperfusion injury Sprague-Dawley rat model assessed as increase in mid viable myocardium at 10 mg/kg,po qd measured after 6 weeks; type: functional
Rattus norvegicus [14] = experiment: Neuroprotective activity against ischemia-reperfusion injury Sprague-Dawley rat model assessed as increase in distal viable myocardium at 10 mg/kg,po qd measured after 6 weeks; type: functional
Mus musculus [15] = experiment: Neuroprotective activity against Myocardial infarction C57BL/6 mouse model assessed as fold increase in infarct wall thickness at 10 mg/kg,po qd measured after 4 weeks; type: functional

EC50 (fMet-Leu-Phe receptor [1]): 50 nM
EC50 [2]: 10 nM
EC50 (fMet-Leu-Phe receptor [3]): 20 nM
EC50 [4]: 50 nM
EC50 [5]: > 1000 nM
EC50 [6]: 3100 nM
EC50 (HL-60 [7]): 78 nM
IC50 (HL-60 [8]): 189 nM
SMILES: Cn1c(C(C)(C)C)c(NC(=O)Nc2ccc(Cl)cc2)c(=O)n1-c1ccccc1
Activity (Mus musculus [9]): 44%
Activity (Mus musculus [10]): 49%
Activity (Rattus norvegicus [11]): 32%
Activity (Rattus norvegicus [12]): 34%
Activity (Rattus norvegicus [13]): 44%
Activity (Rattus norvegicus [14]): 35%
fold change (FC) (Mus musculus [15]): 1.6
